Data: patent publication US7445931B2, “Compositions and methods for enrichment of neural stem cells using ceramide analogs” (Bresagen, Inc., priority 2002, dated 2008)

Legend:
[1] = tested on: Oct-4; test: Oct-4 immunoblotting of EB8 stage cells incubated with S18; assay type: cell-based, mouse; conditions: EB8 stage cells incubated with 75 μM S18 for 24 hours
Experimental: In vitro differentiating ES cells at stage EB8 were incubated for […] with 75 μM S18, or 35 μM N-acyl sphingosine or other ceramide analogs. Protein was isolated from cells incubated with S18 for 24 hours and from untreated cells, separated by SDS-PAGE, and the expression of Oct-4 was analyzed by immunoblotting.

[2] = tested on: differentiating ES-J1 cells; test: Apoptosis (TUNEL staining, cell death) in differentiating mouse ES cells incubated with ceramide analogs; assay type: cell-based; conditions: for number of TUNEL stained cells: 15 hours with 75 μM S16 or S18, or 35 μM C2-ceramide
Experimental: In vitro neural differentiation of mouse ES cells (ES-J1, ES-D3) followed a serum deprivation protocol as described previously (Hancock, et al., 2000 Biochem. Biophys. Res. Commun., 271: 418-421). The differentiation stages are outlined in FIG. 2. Briefly, ES cells were grown on gamma-irradiated feeder fibroblasts for four days in Knockout DMEM/15% Knockout serum replacement, supplemented with ESGRO (LIF; Chemicon; Cat No. ESG1106) at a concentration of 10^3 units/ml medium. ES cells were then grown for another four days on gelatin-coated bacterial culture dishes without a fibroblast feeder layer, and were then grown for three days in Knockout DMEM/15% heat-inactivated ES qualified Fetal Bovine Serum, supplemented with 10^3 units LIF per ml of medium. Upon trypsinization, ES cells were transferred to bacterial culture dishes without gelatin, and embryoid body (EB) formation was induced for four days in Knockout DMEM/10% heat-inactivated ES qualified FBS without LIF (EB4 stage). On the fifth day, floating and loosely attached EBs were rinsed off and transferred to tissue culture dishes. The EBs were allowed to attach to the tissue culture dish surface by incubation for another 24 hours in Knockout DMEM with 10% heat-inactivated ES qualified fetal bovine serum. Neural differentiation due to serum deprivation was induced by cultivation of the EBs for three days in DME/12 (50/50), supplemented with 1×N2 (Invitrogen/Life Technologies; Cat No. 17502, dilution of 1:100) but without serum (EB8 stage). Serum-deprived EBs were then trypsinized, plated on poly-L-ornithine/laminin-coated tissue culture dishes and grown for four days in DMEM/F12 (50/50), supplemented with N2 and 10 ng/ml FGF-2, but without serum. This incubation period is referred to as neuroprogenitor (NP) stage due to commitment of neuroepithelial precursor cells to neuroprogenitor cells, and/or due to the selective expansion of neural progenitor cells in the FGF-2 containing serum-free medium. These cells have committed during the EB stages and were expanded during the NP stage. NPs grown for 48 hours upon replating of trypsinized EBs were referred to as the NP2 stage. On the fifth day of NP formation, the medium was changed to Neurobasal (Invitrogen/Life Technologies; Cat No. 21103-049), with 5% heat-inactivated FBS, and the cells were incubated for another seven days. During this time, NPs fully differentiate to glial cells and neurons. Cells cultured for 24 hours or 96 hours upon changing the medium were referred to as the D1 or D4 stage, respectively.
ES cells were cultured and differentiated to the EB4, EB8, NP2, or D4 stage following the protocol as described above. The ceramide analog S18 was dissolved in ethanol at a concentration of 100 mM and then added to the cells at a final concentration of 75 μM in medium. The cells at the EB8 stage were incubated for 48 hours in the presence of the ceramide analog and were then transplanted into mouse brains.
Differentiating ES cells were grown on cover slips and fixed with 4% paraformaldehyde in phosphate-buffered saline (PBS). Fixed cells were permeabilized with 0.5% Triton X-100 in PBS for 5 minutes at room temperature and unspecific binding sites were saturated by incubation with 3% ovalbumin in PBS for 1 hour at 37° C. The cover slips were then incubated with 5 μg/ml primary antibody (anti-ceramide clone 15B4 mouse IgM, Alexis; anti-PAR-4 rabbit IgG, Santa Cruz; anti-PCNA rabbit IgG, Santa Cruz; anti-nestin clone 401 rat IgG, BD Pharmingen) in 0.1% ovalbumin/PBS, followed by incubation with the appropriate fluorescence-labeled secondary antibody (5 μg/ml Alexa 546 conjugated anti-mouse IgG, Molecular Probes; Alexa 488 conjugated anti-rabbit IgG, Molecular Probes, Cy3 conjugated anti-mouse IgM, Jackson) for 2 hours at 37° C. The nuclei were stained by treatment with 2 μg/ml Hoechst 33258 in PBS for 30 minutes at room temperature. […]

[3] = tested on: differentiating ES cells; test: Apoptosis (TUNEL) in ceramide-depleted differentiating ES cells and its restoration by ceramide or analogs; assay type: cell-based, mouse
Experimental: Fumonisin B1 (FB1) or myriocin-treated (ceramide-depleted) differentiating ES cells were incubated with natural ceramide. To prepare the natural ceramide, 50 mg of EBs or NPs were resuspended in 500 μl of water, and after phase separation with 500 μl of CHCl3/CH3OH (1:1 by vol.) the neutral lipids were recovered from the lower phase. The neutral lipids were evaporated to dryness with a gentle stream of nitrogen and redissolved in 1 ml of CHCl3. The solution was applied to a silicic acid gel column (0.5 g) and fatty acids and cholesterol washed out with another 15 ml of CHCl3 (Dasgupta and Hogan, 2001 J. Lipid Res., 42:301-308). The ceramide fraction was then eluted with 20 ml of CHCl3/acetone (9:1, by vol.), evaporated to dryness, and the residue (approximately 6 nmoles of ceramide) dissolved in 20 μl of ethanol containing 2% dodecane (vol./vol.). Aliquots of 5 μl were mixed with 1 ml of medium, yielding a final concentration of 1.5 μM natural ceramide for induction of apoptosis (Ji et al., 1995 FEBS Lett., 358:211-214).
Differentiating ES cells at the EB8 cells were dissociated and grown for 24 hours on laminin/ornithin-coated cover slips (NP1 stage) in DMEM/F12 (50/50), supplemented with 1×N2 and 20 ng/ml FGF-2. Cells were incubated for 3 hours with 10 μM bromodeoxyuridine (BrdU) and the TUNEL assay or immunostainings performed after 5 hours of incubation. For immunostaining, cells were fixed with 4% paraformaldehyde in phosphate-buffered saline (PBS). Fixed cells were permeabilized with 0.2% Triton X-100 in PBS for 5 minutes at room temperature and immunostaining performed as described previously (Bieberich et al., 2001 J. Biol. Chem., 276:44396-44404). The nuclei were stained by treatment with 2 μg/ml Hoechst 33258 in PBS for 30 minutes at room temperature. Apoptotic nuclei were stained using the fluorescein FragEL TUNEL assay according to instructions of the manufacturer (Oncogene).
The degree of apoptosis in differentiating ES cultures was determined since it was previously proposed that ceramide elevation induces apoptosis in NPs (Bieberch et al., 2001 J. Biol. Chem., 276:44396-44404). […] Apoptosis was elevated at the EB8 stage ([…]), and was highest at the NP2 stage (35+/−5%). […] Apoptosis was restored by the addition of 30 μM N-acetyl sphingosine (C2-ceramide), 80 μM of the novel ceramide analog N-oleoyl serinol (S18), or 1 μM of natural ceramide that was extracted from differentiating ES cells.

[4] = FB1-treated cells at the NP2 stage

Structure (SMILES): CCCCCCCC/C=C\CCCCCCCC(=O)NC(CO)CO [S18, N-(2-hydroxy-1-(hydroxymethyl)ethyl)-oleoylamide]
- Oct-4 immunostaining relative to untreated control cells [1]: 25%
- decrease in Oct-4 protein levels [1]: 75%
- cell death ([2]; EB8 and NP2 stages, 20 hours with 75 μM S18): high degree of cell death
- number of TUNEL stained cells ([2]; EB8 stage): 45±10%
- number of TUNEL stained cells ([2]; NP2 stage): 70±10%
- effect on differentiated neurons (cell death) ([2]; differentiated neurons, 20 hours with 75 μM S18): unaffected
- dependence of apoptosis on PAR-4 expression [3, 4]: only seen in cells that expressed PAR-4
- number of PAR-4 positive cells [3, 4]: did not alter the number of PAR-4 positive cells
- restoration of apoptosis in FB1-treated cells ([3]; NP2 stage, 30 μM C2-ceramide, 80 μM S18, or 1 μM natural ceramide): restored
- concentration of endogenous ceramide ([3]; S18 incubation of FB1-treated cells at the NP2 stage): did not alter the concentration of endogenous ceramide
